Where two headings read alike, the source gives them in different places.
How the values were obtained:
Type in all cases: cell-based, human
[1] = test system: SW480 cells (KRAS G12D); assay: Proliferation inhibition (CellTiter-Glo), SW480; conditions: SW480, 3 days, read-out: SW480 Prolif. EC50
Experimental: (§1) All cancer cell lines (A375, A101D, A2058, RKO, HT29 SK-MEL 30, IPC298, HepG2, HCT-116, Lovo, SWV620, SW480, NCI-H358, NCI-H2122, Calu-6, NCIH2087, NCIH1755, NCIH1666 and Mewo) were obtained from ATCC and cultured in RPMI-1640 medium (Gibco) supplemented with 5% heat inactivated fetal bovine serum (FBS, Wisent) at 37° C. under 5% CO2. Cells were maintained in T175 flasks (Greiner). They were passaged by removing the culture medium, washing once in 10 mL of room temperature Phosphate Buffered Saline (PBS; Wisent) and incubating at 37° C. with 2 mL of 0.05% Trypsin (Thermo-Fisher). Trypsin was then inactivated by adding complete growth medium and the cells were then replated in a T175 culture dish at the appropriate dilution. All cell lines were routinely tested for mycoplasma contamination. Tissue type and mutational status of each cell line can be found in Table B.
(§2) CellTiter-Glo® viability analysis was conducted on cells plated in 100 μL of complete RPMI-1640 growth medium in 96-well flat-bottomed white opaque plates (Greiner or Croning) at a density indicated in Table E (for each CCL, number of cells plated per well of a 96-well plate to perform the CellTiter-Glo® cell viability assay). The cell density in cells/cm^2 would correspond to cell number divided by the area of one well of a 96-well plate (0.32 cm^2). […]
(§3) After 3 days of incubation, the growth media were removed by aspiration and 60 μL of diluted CellTiter-Glo® reagent (10 μL CellTiter-Glo® reagent+50 μL of PBS) was added to each well. […] Luminescence signals were then acquired on a Synergy Neo2 plate reader (Biotek).
(§4) The effect of each compound dilution on the proliferation of cancer cell lines was expressed in % inhibition and calculated as follows. […]
(§5) The ability of each compound to inhibit proliferation was expressed as a EC50 value obtained by plotting the effect values for each data point of a dilution series and fitting the obtained curves using a log(agonist) versus response-variable slope (four parameters) function using GraphPadPrism (V7.0) or Dotmatics Screening Ultra platform.

[2] = test system: NCIH2087 cells (BRAF L597V; KRAS Q61K); assay: Proliferation inhibition (CellTiter-Glo), NCIH2087; conditions: NCIH2087, 3 days, read-out: NCIH2087 Prolif. EC50
Experimental: as §1, §2, §3, §4, §5

[3] = test system: pERK in Calu-6 cells (KRAS Q61K); assay: Phospho-ERK inhibition (AlphaLISA), Calu-6; conditions: for Calu6 pERK % Ymin: Calu6, value in parentheses
Experimental: as §1
(§6) AlphaLISA® SureFire® Ultra™ p-ERK 1/2 (Thr202/Tyr204) analysis was conducted on cells plated in 100 μL of complete RPMI-1640 growth medium in 96-well flat-bottomed transparent dishes (Costar) at a density indicated in Table C. Cells were maintained overnight at 37° C. under 5% CO2 before treatment with compounds' dilution series for one hour. The cell density in cells/cm^2 corresponds to cell number divided by the area of one well of a 96-well plate ([…]).
(§7) In a dilution series 100 μL/well of test substance dilution prepared in complete RPMI-1640 growth media was added to the cells. The dilution series is selected so that ten concentrations cover a range from 10 μM to 0.33 nM. If necessary the initial concentration of 10 μM is increased to 100 μM or lowered to 1 μM (as in the case of A375 and H1666 cells, which are generally more sensitive to the compounds) and further dilution is carried out accordingly. The final concentration of DMSO in the assay is set at 0.5%.
(§8) After treatment, media was removed and cells were lysed in 50 μL of 1× AlphaScreen Ultra Lysis Buffer (Perkin Elmer). The AlphaLISA® SureFire® Ultra™ p-ERK 1/2 (Thr202/Tyr2O4) (PerkinElmer) reactions were performed with 5 μL of cell lysate according to the manufacturer's specifications in 384-well proxyplates (Perkin Elmer) followed by overnight incubation of the reactions at room temperature in a humidified chamber. After completion of the reactions, the signals were recorded on an EnVision plate reader (Perkin Elmer) using built in AlphaLISA® settings.
(§9) The effect of each compound dilution on the pERK signal was expressed in % inhibition and calculated as follows. An internal 100% inhibition control ([…] trametinib, cat #HY-10999; MedChem Express; CAS #871700-17-3) was included in each plate and used as a measure of pERK background. First, the value obtained for trametinib was subtracted from each data point. The average of DMSO (vehicle) controls (set as 0% inhibition) was established and used to calculate % inhibition: % inhibition=100*(1-((pERK signalcompound)/(pERK signalDMSO)))
as §5, with “pERK signal” for “proliferation”, “an IC50” for “a EC50”, “inhibition” for “effect”
(§10) When present, paradoxical pERK induction is inferred from the negative % inhibition values observed in the pERK IC50 curves of a compound.

[4] = test system: IPC298 cells (NRAS-Q61L); assay: Proliferation inhibition (CellTiter-Glo), IPC298; conditions: IPC298, 3 days, read-out: IPC298 Prolif. EC50
Experimental: as §1, §2, §3, §4, §5

[5] = test system: Calu-6 cells (KRAS Q61K); assay: Proliferation inhibition (CellTiter-Glo), Calu-6; conditions: Calu6, 3 days, read-out: Calu6 Prolif. EC50
Experimental: as §1, §2, §3, §4, §5

[6] = test system: pERK in HepG2 cells (NRAS-Q61L); assay: Phospho-ERK inhibition (AlphaLISA), HepG2; conditions: for HepG2 pERK % Ymin: HepG2, value in parentheses; for IC50: HepG2
Experimental: as §1, §6, §7, §8, §9
as §5, with “pERK signal” for “proliferation”, “an IC50” for “a EC50”, “inhibition” for “effect”
as §10

| EC50 ([1]; Homo sapiens, 72 h) | IC50 ([3]; Homo sapiens, Calu-6, read-out: Calu6 pERK IC50) | EC50 ([5]; Homo sapiens, Calu-6, 72 h) | IC50 ([6]; Homo sapiens) | EC50 [1] | IC50 ([3]; Calu6) | EC50 [5] | IC50 [6] | Structure (SMILES) | EC50 ([2]; Homo sapiens, NCI-H2087, 72 h) | Calu6 pERK % Ymin [3] | EC50 ([4]; Homo sapiens, IPC-298, 72 h) | HepG2 pERK % Ymin [6] | EC50 [2] | EC50 [4] |
| --- | --- | --- | --- | --- | --- | --- | --- | --- | --- | --- | --- | --- | --- | --- |
| 300 to 3000 nM | 30 to 300 nM | < 30 nM | 30 to 300 nM | – | – | – | – | Cc1ccc2c(Nc3cccc(Cl)c3F)nccc2c1NC(=O)c1csc2c(N)ncnc12 [Belvarafenib, reference compound] | < 30 nM | −39% | < 30 nM | −36% | – | – |
| – | – | – | – | 300 to 3000 nM | 30 to 300 nM | 300 to 3000 nM | < 30 nM | Nc1cccc2c1ncn2-c1ccc2ncnc(Nc3c(F)ccc(NS(=O)(=O)c4cccc(Cl)c4Cl)c3F)c2n1 [Example 99] | – | −12% | – | 7% | 300 to 3000 nM | < 30 nM |
| – | – | – | – | 300 to 3000 nM | 30 to 300 nM | 300 to 3000 nM | 30 to 300 nM | CC1(O)CCN(c2cccc3c2ncn3-c2ccc3ncnc(Nc4c(F)ccc(NS(=O)(=O)c5cccc(Cl)c5Cl)c4F)c3n2)CC1 [Example 524] | – | −13% | – | 2% | < 30 nM | < 30 nM |

Reference: patent US12139488B2, “Pyrido[3,2-d]pyrimidine compounds uses thereof for treating a proliferative disease” (Universite de Montreal, priority 2021, dated 2024)
